These are literature values, as cited in US20120101168A1, “DEUTERIUM ENRICHED RASAGILINE” (priority 2010, published 2012).

In one data set the test system is MAO. The settings on record: more potent, but not in-vitro.
Another data set addresses CYP1A2 (Homo sapiens, UniProt P05177). The settings on record: forms several primary metabolites.

CYP1A2, sequence (P05177 whole entry): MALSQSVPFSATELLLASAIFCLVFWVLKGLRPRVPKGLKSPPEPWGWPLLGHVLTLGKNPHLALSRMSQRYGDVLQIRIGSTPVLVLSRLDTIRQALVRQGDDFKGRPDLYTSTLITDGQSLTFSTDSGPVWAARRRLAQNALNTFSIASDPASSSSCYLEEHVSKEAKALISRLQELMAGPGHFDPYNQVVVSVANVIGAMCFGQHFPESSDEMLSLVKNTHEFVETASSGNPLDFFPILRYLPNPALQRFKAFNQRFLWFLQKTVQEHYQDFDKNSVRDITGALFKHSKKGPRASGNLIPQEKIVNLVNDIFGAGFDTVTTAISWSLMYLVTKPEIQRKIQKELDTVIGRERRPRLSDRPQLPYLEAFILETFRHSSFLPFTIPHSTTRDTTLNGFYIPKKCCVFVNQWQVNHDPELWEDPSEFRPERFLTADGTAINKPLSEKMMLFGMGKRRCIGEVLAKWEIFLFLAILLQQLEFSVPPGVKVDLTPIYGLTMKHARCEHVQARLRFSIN

On to `[2H]C([2H])(NN)C([2H])([2H])c1ccccc1` [deuterated phenelzine], for which the “MAO inhibition potency compared with non-deuterated phenelzine” value in the data set with MAO is given as “more potent MAO inhibitor”.

On to `C#CCN[C@@H]1CCc2ccccc21` [Rasagiline, R(+)-N-propargyl-1-aminoindan], for which, at CYP1A2, the “metabolism by CYP1A2” value is listed as “slowly metabolized”.
